Assay [1] deals with HCT116 MTAP null cells. The assay is described as follows: HCT116 MTAP null cell proliferation / viability (CellTiter-Glo, 6 days). The format is cell-based. Conditions: for IC50: HCT116-MTAP null, 144 h, HCT116 MTAP null cells, 6 days, CellTiter-Glo, read-out: HCT-116 MTAP null IC50. In short, it runs like this: (§1)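 IC50 values derive from sigmoidal dose-response fits, some with Hill slope fixed at −1 and top constrained to 100%, others from 4-parameter logistic models. They reflect CellTiter-Glo viability after 6 days of compound exposure at up to 10 or 50 μM.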
For orientation: In ATP-based viability assays light output follows the ATP content of the culture.

For assay [2], the system named is HCT116 WT cells. Put plainly: HCT116 WT cell proliferation / viability (CellTiter-Glo, 6 days). The assay is classed as cell-based. The following applies: Homo sapiens, HCT-116, 144 h, HCT116 WT cells, 6 days, CellTiter-Glo; read-out: HCT-116 WT IC50. In short, it runs like this:
as §1

We go through 28 compounds from patent US20240101570A1 (AMGEN INC., priority 2020, published 2024).

Each structure is given as a SMILES string.

As for `CCN(C(=O)c1cc2c3c(c(N)nc2cn1)COC3)[C@H](C)c1ccc(C(F)(F)F)nn1` [Example 763, 4-amino-N-ethyl-N-((1R)-1-(6-(trifluoromethyl)-3-pyridazinyl)ethyl)-1,3-dihydrofuro[3,4-c][1,7]naphthyridine-8-carboxamide], the IC50 in assay [1] amounted to 113 nM; in assay [2] it was 4810 nM.

Turning to `CCN(Cc1ccc(C2CC2)cn1)C(=O)c1cc2c(cc1F)nc(N)c1cnn(C)c12` [Example 545, 4-amino-N-((5-cyclopropyl-2-pyridinyl)methyl)-N-ethyl-7-fluoro-1-methyl-1H-pyrazolo[4,3-c]quinoline-8-carboxamide], the IC50 in assay [1] stood at 7 nM; in assay [2], 140 nM.

Regarding `C[C@H](c1ccc(C(F)(F)F)nn1)N(C(=O)c1cc2c(cc1Cl)nc(N)c1cnn(C)c12)C1CC1` (single isomer, unassigned) [Example 881], the figures for the IC50 in assay [1] and in assay [2] were 7 nM and 370 nM, respectively.

Take `Cn1ncc2c(N)nc3cc(C(F)(F)F)c(C(=O)N(Cc4ccc(C(F)(F)F)cn4)C4CC4)cc3c21` [Example 812, 4-amino-N-cyclopropyl-1-methyl-7-(trifluoromethyl)-N-((5-(trifluoromethyl)-2-pyridinyl)methyl)-1H-pyrazolo[4,3-c]quinoline-8-carboxamide]: the figures for the IC50 in assay [1] and in assay [2] were 237 nM and 14100 nM, respectively.

Regarding `CCN(Cc1ccc(C(F)(F)F)cn1)C(=O)c1cc2c(cc1F)nc(N)c1cnn(C)c12` [Example 554, 4-amino-N-ethyl-7-fluoro-1-methyl-N-((5-(trifluoromethyl)-2-pyridinyl)methyl)-1H-pyrazolo[4,3-c]quinoline-8-carboxamide], the values for the half-inhibitory concentration (IC50) in assay [1] and in assay [2] were 8 nM and 181 nM, respectively.

Turning to `C[C@H](CF)N(Cc1ccc(C#N)cn1)C(=O)c1ccc2nc(N)c3c(c2c1)COC3` (single isomer, unassigned) [Example 577], the IC50 in assay [1] is 3260 nM; in assay [2], above 10000 nM. Moreover, in assay [1] (HCT116 MTAP null, comparison of the two SFC-separated enantiomers), the “potency of enantiomer relative to the other enantiomer, measured by IC50 in HCT116 MTAP null cell viability assay” value is on record as “more potent”.

Consider `CC1(C)OCc2c1c(N)nc1ccc(C(=O)N(Cc3ccc(C(F)(F)F)cn3)C3CC3)cc21` [Example 935, 4-amino-N-cyclopropyl-3,3-dimethyl-N-((5-(trifluoromethyl)pyridin-2-yl)methyl)-1,3-dihydrofuro[3,4-c]quinoline-8-carboxamide], for which the IC50 was 630 nM in assay [1] and above 1000 nM in assay [2].

As for `CCN(C(=O)c1ccc2nc(N)c3c(c2c1)CO[C@@H]3C)[C@H](C)c1ccc(C#N)cn1` (single isomer, unassigned) [Example 844], the IC50 in assay [1] was determined as 105 nM; in assay [2], 6220 nM.

As to `CC(C)CN(Cc1ccc(C(F)(F)F)nn1)C(=O)c1ccc2nc(N)c3c(c2c1)COC3` [Example 664, 4-amino-N-(2-methylpropyl)-N-((6-(trifluoromethyl)-3-pyridazinyl)methyl)-1,3-dihydrofuro[3,4-c]quinoline-8-carboxamide], the IC50 in assay [1] is 38 nM; in assay [2] it was 1390 nM.

On to `C[C@H](c1ncccn1)N(Cc1ccc(Br)cn1)C(=O)c1ccc2nc(N)c3c(c2c1)COC3` [Example 658, 4-amino-N-((5-bromo-2-pyridinyl)methyl)-N-((1R)-1-(2-pyrimidinyl)ethyl)-1,3-dihydrofuro[3,4-c]quinoline-8-carboxamide], for which the figures for the IC50 in assay [1] and in assay [2] were 6 nM and 71 nM, respectively.

On to `CCOc1ccc(CN(C(=O)c2cc3c4c(c(N)nc3cn2)COC4)[C@H](C)COC)nn1` [Example 388, 4-amino-N-((6-ethoxy-3-pyridazinyl)methyl)-N-((2R)-1-methoxy-2-propanyl)-1,3-dihydrofuro[3,4-c][1,7]naphthyridine-8-carboxamide], for which the IC50 in assay [1] was determined as 54 nM; in assay [2], 1280 nM.

For `CC(C)N(Cc1ccc(C(F)(F)F)cn1)C(=O)c1ccc2nc(N)c3c(c2c1)COC3` [Example 451, 4-amino-N-(2-propanyl)-N-((5-(trifluoromethyl)-2-pyridinyl)methyl)-1,3-dihydrofuro[3,4-c]quinoline-8-carboxamide], the IC50 came out at 32 nM in assay [1] and 4380 nM in assay [2].

For the compound `CCN(C(=O)c1cc2c3c(c(N)nc2cn1)COC3)[C@H](C)c1ccc(C(F)F)cn1` [Example 773, 4-amino-N-((1R)-1-(5-(difluoromethyl)-2-pyridinyl)ethyl)-N-ethyl-1,3-dihydrofuro[3,4-c][1,7]naphthyridine-8-carboxamide], the figures for the IC50 in assay [1] and in assay [2] were 106 nM and 2630 nM, respectively.

Take `CN(Cc1ccc(C(F)(F)F)cn1)C(=O)c1cc2c(cn1)nc(N)c1cnn(C)c12` [Example 568, 4-amino-N,1-dimethyl-N-((5-(trifluoromethyl)-2-pyridinyl)methyl)-1H-pyrazolo[4,3-c][1,7]naphthyridine-8-carboxamide]: the IC50 in assay [1] was determined as 91 nM; in assay [2] it was 5390 nM.

In the case of `CCN(Cc1ccc(C(F)(F)F)cn1)C(=O)c1ccc2nc(N)c3c(c2c1)CO[C@H]3CF` (single isomer, unassigned) [Example 596], the IC50 in assay [1] was found to be 888 nM; in assay [2], 37300 nM.

As for `CC(C)CN(Cc1ccc(C(F)(F)F)cn1)C(=O)c1ccc2nc(N)c3c(c2c1)CO[C@H]3CO` (single isomer, unassigned) [Example 579], the figures for the IC50 in assay [1] and in assay [2] were 348 nM and 5620 nM, respectively.

With `CN(Cc1ccc(C(F)(F)F)nc1F)C(=O)c1cc2c(cc1F)nc(N)c1cnn(C)c12` [Example 782, 4-amino-7-fluoro-N-((2-fluoro-6-(trifluoromethyl)-3-pyridinyl)methyl)-N,1-dimethyl-1H-pyrazolo[4,3-c]quinoline-8-carboxamide], the results for the IC50 in assay [1] and in assay [2] were 80 nM and 7770 nM, respectively.

Turning to `CC(C)N(C(=O)c1ccc2nc(N)c3c(c2c1)CO[C@@H]3C)[C@H](C)c1ccc(C(F)(F)F)cn1` (single isomer, unassigned) [Example 839], the IC50 in assay [1] was found to be 213 nM; in assay [2] it was 9520 nM.

With `N#Cc1ccc(CN(CC2(C#N)CC2)C(=O)c2ccc3nc(N)c4c(c3c2)COC4)nc1` [Example 457, 4-amino-N-((1-cyanocyclopropyl)methyl)-N-((5-cyano-2-pyridinyl)methyl)-1,3-dihydrofuro[3,4-c]quinoline-8-carboxamide], the values for the IC50 in assay [1] and in assay [2] were 132 nM and 3180 nM, respectively.

As for `C[C@H](c1ncccn1)N(Cc1ccc(C#N)cn1)C(=O)c1cc2c3c(c(N)nc2cc1F)COC3` [Example 436, 4-amino-N-((5-cyano-2-pyridinyl)methyl)-7-fluoro-N-((1R)-1-(2-pyrimidinyl)ethyl)-1,3-dihydrofuro[3,4-c]quinoline-8-carboxamide], the values for the IC50 in assay [1] and in assay [2] were 29 nM and 187 nM, respectively.

`C[C@H](c1ncccc1F)N(Cc1ccc(C(F)(F)F)nn1)C(=O)c1cnc2nc(N)c3c(c2c1)CCC3` [Example 628, 6-amino-N-((1R)-1-(3-fluoro-2-pyridinyl)ethyl)-N-((6-(trifluoromethyl)-3-pyridazinyl)methyl)-8,9-dihydro-7H-cyclopenta[c][1,8]naphthyridine-2-carboxamide]: the IC50 in assay [1] was 119 nM; in assay [2], 1190 nM.

Turning to `C[C@H]1OCc2c1c(N)nc1cnc(C(=O)N(Cc3ccc(C(F)(F)F)cn3)CC(F)(F)F)cc21` [Example 320, (3R)-4-amino-3-methyl-N-(2,2,2-trifluoroethyl)-N-((5-(trifluoromethyl)-2-pyridinyl)methyl)-1,3-dihydrofuro [3,4-c][1,7]naphthyridine-8-carboxamide], the IC50 in assay [1] came to 303 nM; in assay [2], 15800 nM.

As to `COC[C@H](C1CC1)N(Cc1ccc(N2CCOCC2)nn1)C(=O)c1ccc2nc(N)c3c(c2c1)COC3` [Example 641, 4-amino-N-((1S)-1-cyclopropyl-2-methoxyethyl)-N-((6-(4-morpholinyl)-3-pyridazinyl)methyl)-1,3-dihydrofuro[3,4-c]quinoline-8-carboxamide], the figures for the IC50 in assay [1] and in assay [2] were 16 nM and 242 nM, respectively.

Consider `CN(Cc1ccc(C(F)(F)F)cn1)C(=O)c1cc2c3c(c(N)nc2cc1Cl)COC3` [Example 470, 4-amino-7-chloro-N-methyl-N-((5-(trifluoromethyl)-2-pyridinyl)methyl)-1,3-dihydrofuro[3,4-c]quinoline-8-carboxamide], for which the values for the IC50 in assay [1] and in assay [2] were 41 nM and 3020 nM, respectively.

For `N#CC[C@@H](C1CC1)N(Cc1ccc(C#N)cn1)C(=O)c1ccc2nc(N)c3c(c2c1)COC3` (single isomer, unassigned) [Example 582], the values for the IC50 in assay [1] and in assay [2] were 36 nM and 558 nM, respectively.

On to `CCN(Cc1cnc(C(F)(F)F)cn1)C(=O)c1cc2c3c(c(N)nc2cc1Cl)COC3` [Example 498, 4-amino-7-chloro-N-ethyl-N-((5-(trifluoromethyl)-2-pyrazinyl)methyl)-1,3-dihydrofuro[3,4-c]quinoline-8-carboxamide], for which the results for the IC50 in assay [1] and in assay [2] were 266 nM and 12700 nM, respectively.

Consider `C[C@H](c1ncc(F)cc1F)N(C)C(=O)c1cc2c(cc1F)nc(N)c1cnn(C)c12` (single isomer, unassigned) [Example 853], for which the results for the IC50 in assay [1] and in assay [2] were 167 nM and 14400 nM, respectively.

Take `C[C@H]1OCc2c1c(N)nc1ccc(C(=O)N(C)Cc3ccc(Br)cn3)cc21` [Example 328, (3R)-4-amino-N-((5-bromo-2-pyridinyl)methyl)-N,3-dimethyl-1,3-dihydrofuro[3,4-c]quinoline-8-carboxamide]: the IC50 in assay [1] worked out at 129 nM; in assay [2] it was 19400 nM.

One may read the IC50 as the midpoint of a concentration-inhibition curve.
